Laboratory results reported in US20220125765A1, “PHARMACEUTICAL COMBINATIONS COMPRISING MEBENDAZOLE AND A STRONG OR MODERATE CYP1A2 INHIBITOR” (ZEPHAPHARM LTD, priority 2019, published 2022).
pIC50: −log10 of the molar value. Like-named read-outs stand apart in the source and are kept apart here.

Tests used:
[1] = tested on: SXFS A-204; assay: 2D monolayer CellTiter-Blue viability, soft tissue sarcoma A-204; type: cell-based; settings: 72 h
Protocol: (§1) Seventeen compounds, including mebendazole (Batch no. […] Efficacy of compounds was assessed using CellTiter-Blue® Cell Viability Assay. Anti-tumor activity is expressed as absolute and relative IC50 and IC70 values, calculated by non-linear regression analysis.

[2] = target: CYP2C9 (Homo sapiens, UniProt P11712); assay: Cytochrome P450 reaction phenotyping, recombinant CYP2C9 (Bactosomes)
Chain of CYP2C9 (P11712 whole entry, canonical isoform): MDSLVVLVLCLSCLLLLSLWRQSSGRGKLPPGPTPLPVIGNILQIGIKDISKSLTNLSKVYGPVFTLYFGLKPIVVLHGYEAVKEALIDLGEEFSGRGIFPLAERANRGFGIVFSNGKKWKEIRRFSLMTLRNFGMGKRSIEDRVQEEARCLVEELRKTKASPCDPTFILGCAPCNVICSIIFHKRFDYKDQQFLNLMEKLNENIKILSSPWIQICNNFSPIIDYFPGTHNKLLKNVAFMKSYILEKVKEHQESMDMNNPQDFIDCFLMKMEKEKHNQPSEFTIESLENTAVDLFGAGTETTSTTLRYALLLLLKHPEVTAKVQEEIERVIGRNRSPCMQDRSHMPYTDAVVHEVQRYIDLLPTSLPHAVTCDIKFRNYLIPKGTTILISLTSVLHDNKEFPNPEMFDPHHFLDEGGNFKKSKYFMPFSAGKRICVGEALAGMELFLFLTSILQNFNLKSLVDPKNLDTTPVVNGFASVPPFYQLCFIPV
Protocol: Incubations were also performed using control Bactosomes™ (no P450 enzymes present) to reveal any non-enzymatic degradation. Control compounds known to be metabolised specifically by each P450 isoform were included. All incubations were performed singularly for each test compound.
Incubations were also performed using control Bactosomes™ (no P450 enzymes present) to reveal any non-enzymatic degradation. Control compounds known to be metabolised specifically by each P450 isoform were included. All incubations were performed singularly for each test compound. […] The reactions were stopped by transferring an aliquot of incubate to quench solvent at the appropriate time points, in a 1:3 ratio. The termination plates were centrifuged at 3,000 rpm for 20 min at 4° C. to precipitate the protein.

[3] = Stability in human cryopreserved hepatocytes without and with cimetidine or furafylline (Example 5); type: in vitro ADME; settings: human; for hepatocyte CLint at 1 µM: read-out: intrinsic clearance
Protocol: The final incubation volume was 500 μL. Two control compounds were included with each species, alongside appropriate vehicle control.
The samples were analysed for mebendazole or ethoxycoumarin using LC-MS/MS.
The final incubation volume was 500 μL.
A positive control compound, ethoxycoumarin, for CYP1A2 was included. […] The samples were analysed for mebendazole or ethoxycoumarin using LC-MS/MS.

[4] = target: T1, BCRP (Homo sapiens, UniProt Q9UNQ0); assay: in vitro
T1 sequence (Q9UNQ0 1-655): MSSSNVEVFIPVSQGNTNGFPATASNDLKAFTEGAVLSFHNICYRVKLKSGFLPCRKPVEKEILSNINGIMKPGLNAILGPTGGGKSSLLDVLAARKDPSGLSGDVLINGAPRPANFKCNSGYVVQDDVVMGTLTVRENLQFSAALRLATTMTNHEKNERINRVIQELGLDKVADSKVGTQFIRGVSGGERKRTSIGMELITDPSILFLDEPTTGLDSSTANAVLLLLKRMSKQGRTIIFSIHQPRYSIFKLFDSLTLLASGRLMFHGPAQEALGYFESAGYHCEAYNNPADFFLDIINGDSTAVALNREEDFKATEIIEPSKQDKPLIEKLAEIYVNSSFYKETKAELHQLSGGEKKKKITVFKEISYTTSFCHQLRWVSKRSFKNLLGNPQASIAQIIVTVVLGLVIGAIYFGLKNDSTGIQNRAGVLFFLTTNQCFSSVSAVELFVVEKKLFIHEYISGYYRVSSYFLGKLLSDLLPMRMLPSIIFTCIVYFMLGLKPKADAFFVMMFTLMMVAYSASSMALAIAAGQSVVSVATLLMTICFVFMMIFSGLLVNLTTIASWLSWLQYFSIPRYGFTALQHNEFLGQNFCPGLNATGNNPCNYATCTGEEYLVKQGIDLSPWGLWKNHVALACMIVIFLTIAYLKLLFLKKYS
Text: Bidirectional apparent permeability of test compound was quantified by LC-MS/MS and used to determine an efflux ratio.

[5] = tested on: SXFO U-2-OS; assay: 2D monolayer CellTiter-Blue viability, osteosarcoma U-2-OS; type: cell-based; settings: 72 h
Protocol: as §1

[6] = tested on: OVCAR-3; assay: 2D monolayer CellTiter-Blue viability, ovarian cancer OVCAR-3; type: cell-based; settings: for pIC50: Homo sapiens; for Test/Control (%) at Drug Concentration: 72 h
Protocol: Mebendazole was tested in vitro across a panel of 12 tumor cell lines of ovarian and renal cancer by using a 2D monolayer assay. […] OVXF 899L and RXF 486L are P-gp expressing, multidrug resistant cell lines.
Anti-tumor activity is expressed as absolute and relative IC50/70 values, calculated by 4-parameter non-linear curve fit.

Compound Remaining (% of 0 min) ([2]; CYP2C9, 5 μM, 0 min): 100 % of 0 min
Compound Remaining (% of 0 min) ([2]; CYP2C9, 5 μM, 5 min): 108 % of 0 min
Compound Remaining (% of 0 min) ([2]; CYP2C9, 5 μM, 15 min): 108 % of 0 min
Compound Remaining (% of 0 min) ([2]; CYP2C9, 5 μM, 30 min): 109 % of 0 min
Compound Remaining (% of 0 min) ([2]; CYP2C9, 5 μM, 45 min): 105 % of 0 min
% compound remaining ([2]; CYP2C9, 5 μM, time not stated): > 87.5%
t1/2 ([2]; CYP2C9, substrate 5 μM): >2.25 h
half-life at 5 μM ([2]; human, recombinant CYP2C9 (Bactosomes), pH 7.4): > 2.25 h
half-life at 1 μM ([3]; cryopreserved hepatocytes (suspension), in the presence of cimetidine (30-300 μM), read-out: half-life, maximum): ≤ 2.32 h
half-life at 1 μM ([3]; cryopreserved hepatocytes (suspension), substrate 1 μM, no inhibitor, read-out: t1/2): 1.73 h
hepatocyte CLint at 1 µM ([3]; cryopreserved hepatocytes (suspension), with furafylline 10 µM, substrate 1 μM, 10 μM furafylline): 2.43 µL/min/1e6 cells
hepatocyte CLint at 1 µM ([3]; cryopreserved hepatocytes (suspension), with furafylline 30 µM, substrate 1 μM, 30 μM furafylline): 1.47 µL/min/1e6 cells
half-life at 1 μM ([3]; cryopreserved hepatocytes (suspension), with furafylline 3-30 µM (maximum half-life over 3, 10 and 30 µM), in the presence of furafylline (3-30 μM), read-out: half-life, maximum): ≤ 15.7 h
hepatocyte CLint at 1 µM ([3]; cryopreserved hepatocytes, substrate 1 μM, absence of inhibitor (inhibitor experiment)): 13.3 µL/min/1e6 cells
hepatocyte CLint at 1 µM ([3]; cryopreserved hepatocytes, substrate 1 μM, hepatocyte stability investigation (no inhibitor arm)): 19.1 µL/min/1e6 cells
hepatocyte CLint at 1 µM ([3]; cryopreserved hepatocytes, with cimetidine 30 μM, substrate 1 μM, 30 μM cimetidine): 13.2 µL/min/1e6 cells
half-life at 1 μM ([3]; cryopreserved hepatocytes, with cimetidine 30 μM, substrate 1 μM, cimetidine 30 μM, read-out: t1/2): 1.75 h
hepatocyte CLint at 1 µM ([3]; cryopreserved hepatocytes, with cimetidine 100 μM, substrate 1 μM, 100 μM cimetidine): 14.7 µL/min/1e6 cells
half-life at 1 μM ([3]; cryopreserved hepatocytes, with cimetidine 100 μM, substrate 1 μM, cimetidine 100 μM, read-out: t1/2): 1.57 h
hepatocyte CLint at 1 µM ([3]; cryopreserved hepatocytes, with cimetidine 300 μM, substrate 1 μM, 300 μM cimetidine): 9.98 µL/min/1e6 cells
half-life at 1 μM ([3]; cryopreserved hepatocytes, with cimetidine 300 μM, substrate 1 μM, cimetidine 300 μM, read-out: t1/2): 2.32 h
hepatocyte CLint at 1 µM ([3]; cryopreserved hepatocytes, with furafylline 3 μM, substrate 1 μM, 3 μM furafylline): 3.47 µL/min/1e6 cells
half-life at 1 μM ([3]; cryopreserved hepatocytes, with furafylline 3 μM, substrate 1 μM, furafylline 3 μM, read-out: t1/2): 6.65 h
half-life at 1 μM ([3]; cryopreserved hepatocytes, with furafylline 10 μM, substrate 1 μM, furafylline 10 μM, read-out: t1/2): 9.5 h
half-life at 1 μM ([3]; cryopreserved hepatocytes, with furafylline 30 μM, substrate 1 μM, furafylline 30 μM, read-out: t1/2): 15.7 h
efflux ratio at 120 min, 10 μM ([4]; Caco-2): 1.23
Papp A→B at 120 min, 10 μM ([4]; Caco-2, Papp Mean): 23.5 ×10⁻⁶ cm/s
Papp B→A at 120 min, 10 μM ([4]; Caco-2, Papp Mean): 29 ×10⁻⁶ cm/s
Papp A→B at 120 min, 10 μM ([4]; Caco-2, Papp Rep 1): 19.7 ×10⁻⁶ cm/s
Papp B→A at 120 min, 10 μM ([4]; Caco-2, Papp Rep 1): 28.2 ×10⁻⁶ cm/s
Papp A→B at 120 min, 10 μM ([4]; Caco-2, Papp Rep 2): 27.4 ×10⁻⁶ cm/s
Papp B→A at 120 min, 10 μM ([4]; Caco-2, Papp Rep 2): 29.8 ×10⁻⁶ cm/s
recovery at 120 min, 10 µM ([4]; Caco-2, calculated mean % recovery values (range)): 52 to 75.7%
pIC50 ([6]; OVCAR-3, 72 h, read-out: Abs. IC50): 6.37
pIC50 ([6]; OVCAR-3, 72 h, read-out: Rel. IC50): 6.44
Structure (SMILES): COC(=O)Nc1nc2ccc(C(=O)c3ccccc3)cc2[nH]1 [Mebendazole, methyl N-(6-benzoyl-1H-benzimidazol-2-yl)carbamate]
Test/Control (%) at Drug Concentration ([1]; A-204, 1.0E+00 μM): 45%
Test/Control (%) at Drug Concentration ([1]; A-204, 1.0E+01 μM): 28%
Test/Control (%) at Drug Concentration ([1]; A-204, 1.0E+02 μM): 10%
Test/Control (%) at Drug Concentration ([1]; A-204, 1.0E−01 μM): 79%
Test/Control (%) at Drug Concentration ([1]; A-204, 1.0E−02 μM): 96%
Test/Control (%) at Drug Concentration ([1]; A-204, 3.2E+00 μM): 35%
Test/Control (%) at Drug Concentration ([1]; A-204, 3.2E+01 μM): 20%
Test/Control (%) at Drug Concentration ([1]; A-204, 3.2E−01 μM): 60%
Test/Control (%) at Drug Concentration ([1]; A-204, 3.2E−02 μM): 83%
Test/Control (%) at Drug Concentration ([1]; A-204, 3.2E−03 μM): 114%
Test/Control (%) at Drug Concentration ([5]; 1.0E+00 μM): 38%
Test/Control (%) at Drug Concentration ([5]; 1.0E+01 μM): 13%
Test/Control (%) at Drug Concentration ([5]; 1.0E+02 μM): 6%
Test/Control (%) at Drug Concentration ([5]; 1.0E−01 μM): 82%
Test/Control (%) at Drug Concentration ([5]; 1.0E−02 μM): 89%
Test/Control (%) at Drug Concentration ([5]; 3.2E+00 μM): 19%
Test/Control (%) at Drug Concentration ([5]; 3.2E+01 μM): 11%
Test/Control (%) at Drug Concentration ([5]; 3.2E−01 μM): 54%
Test/Control (%) at Drug Concentration ([5]; 3.2E−02 μM): 86%
Test/Control (%) at Drug Concentration ([5]; 3.2E−03 μM): 85%
Test/Control (%) at Drug Concentration ([6]; OVCAR-3, 1.0E+00 μM): 27%
Test/Control (%) at Drug Concentration ([6]; OVCAR-3, 1.0E−01 μM): 95%
Test/Control (%) at Drug Concentration ([6]; OVCAR-3, 1.0E−02 μM): 97%
Test/Control (%) at Drug Concentration ([6]; OVCAR-3, 1.0E−03 μM): 89%
Test/Control (%) at Drug Concentration ([6]; OVCAR-3, 1.0E−04 μM): 97%
Test/Control (%) at Drug Concentration ([6]; OVCAR-3, 3.2E+00 μM): 26%
Test/Control (%) at Drug Concentration ([6]; OVCAR-3, 3.2E−01 μM): 69%
Test/Control (%) at Drug Concentration ([6]; OVCAR-3, 3.2E−02 μM): 90%
Test/Control (%) at Drug Concentration ([6]; OVCAR-3, 3.2E−03 μM): 93%
Test/Control (%) at Drug Concentration ([6]; OVCAR-3, 3.2E−04 μM): 103%
Abs. IC70 ([6]; OVCAR-3, 72 h): 0.749 µM
Rel. IC70 ([6]; OVCAR-3, 72 h): 0.447 µM
Bot. (%) ([6]; OVCAR-3, 72 h, curve fit): 26%
Top (%) ([6]; OVCAR-3, 72 h, curve fit): 95%
